According to PMC7671950 (Cellular and molecular neurobiology, 2020):
Read-outs that look alike come from different tables or passages of the source.

Tests used:
[1] = target: T1, mMOR-1 (Mus musculus, UniProt P42866); assay: [35S]GTPγS functional assay; type: biochemical; conditions: for mMOR-1 Emax: percent maximal stimulation relative to DAMGO at 1000 nM; for functional character at MOR-1: [35S]GTPγS functional assays; for Emax: read-out: mMOR-1 Emax
[2] = target: T1, mMOR-1; conditions: read-out: Ki mMOR-1; values from literature; ref Majumdar et al. 2012; cited from earlier work
[3] = target: mDOR-1 (Mus musculus, UniProt P32300); conditions: read-out: Ki mDOR-1; values from literature; ref Majumdar et al. 2012; cited from earlier work
[4] = target: mKOR-1 (Mus musculus, UniProt P33534); conditions: read-out: Ki mKOR-1; values from literature; ref Majumdar et al. 2012; cited from earlier work
[5] = target: T2, 6TM/E11 (Mus musculus, UniProt P42866); conditions: read-out: Ki 6TM/E11; values from literature; ref Majumdar et al. 2012; cited from earlier work
[6] = target: T2, 6TM/E11
[7] = target: triple knockout mouse brain (Mus musculus, UniProt P42866); conditions: read-out: Ki Triple KO; values from literature; ref Majumdar et al. 2012; cited from earlier work
[8] = read-out: mMOR-1 EC50, [35S]GTPγS binding, mean ± SEM, 3 replications

T1 sequence (P42866 whole entry): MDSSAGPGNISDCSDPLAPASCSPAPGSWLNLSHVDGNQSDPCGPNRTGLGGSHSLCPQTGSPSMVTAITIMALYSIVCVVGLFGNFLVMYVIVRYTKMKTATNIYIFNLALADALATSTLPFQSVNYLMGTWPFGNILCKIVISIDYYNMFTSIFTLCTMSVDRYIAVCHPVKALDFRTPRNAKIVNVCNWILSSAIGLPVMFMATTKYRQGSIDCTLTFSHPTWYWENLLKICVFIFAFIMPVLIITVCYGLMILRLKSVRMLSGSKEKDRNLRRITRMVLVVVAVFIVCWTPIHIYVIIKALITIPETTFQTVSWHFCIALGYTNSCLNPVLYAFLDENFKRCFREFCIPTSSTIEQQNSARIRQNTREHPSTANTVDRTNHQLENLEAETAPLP
T2 sequence (P42866 95-386 limits assumed): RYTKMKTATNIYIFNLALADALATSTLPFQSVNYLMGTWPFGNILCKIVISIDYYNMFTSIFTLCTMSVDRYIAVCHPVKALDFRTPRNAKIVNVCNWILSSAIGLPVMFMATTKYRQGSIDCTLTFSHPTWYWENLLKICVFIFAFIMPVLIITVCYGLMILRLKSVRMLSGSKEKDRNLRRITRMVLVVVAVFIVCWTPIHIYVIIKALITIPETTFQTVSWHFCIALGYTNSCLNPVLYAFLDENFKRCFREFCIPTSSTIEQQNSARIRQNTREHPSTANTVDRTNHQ
mDOR-1, sequence (P32300 whole entry): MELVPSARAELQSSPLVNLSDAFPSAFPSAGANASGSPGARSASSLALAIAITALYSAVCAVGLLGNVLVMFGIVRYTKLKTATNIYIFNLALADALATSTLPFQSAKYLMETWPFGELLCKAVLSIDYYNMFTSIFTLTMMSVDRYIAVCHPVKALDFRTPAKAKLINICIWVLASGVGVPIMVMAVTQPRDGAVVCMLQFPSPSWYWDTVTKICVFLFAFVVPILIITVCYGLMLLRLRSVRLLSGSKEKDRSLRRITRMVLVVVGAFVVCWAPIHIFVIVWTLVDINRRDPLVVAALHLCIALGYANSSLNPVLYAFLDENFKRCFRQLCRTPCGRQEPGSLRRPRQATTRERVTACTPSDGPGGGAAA
mKOR-1, sequence (P33534 whole entry): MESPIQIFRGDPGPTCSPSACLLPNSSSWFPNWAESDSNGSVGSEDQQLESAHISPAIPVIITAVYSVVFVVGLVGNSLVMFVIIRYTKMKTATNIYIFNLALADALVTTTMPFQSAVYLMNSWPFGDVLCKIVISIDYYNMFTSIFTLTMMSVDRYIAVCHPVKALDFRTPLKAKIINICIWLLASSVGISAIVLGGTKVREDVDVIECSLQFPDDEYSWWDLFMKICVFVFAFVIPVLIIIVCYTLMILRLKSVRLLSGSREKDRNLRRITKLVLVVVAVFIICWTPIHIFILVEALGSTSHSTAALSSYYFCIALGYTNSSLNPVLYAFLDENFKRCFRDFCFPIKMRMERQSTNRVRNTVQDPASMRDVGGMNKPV
triple knockout mouse brain, sequence (P42866 96-398): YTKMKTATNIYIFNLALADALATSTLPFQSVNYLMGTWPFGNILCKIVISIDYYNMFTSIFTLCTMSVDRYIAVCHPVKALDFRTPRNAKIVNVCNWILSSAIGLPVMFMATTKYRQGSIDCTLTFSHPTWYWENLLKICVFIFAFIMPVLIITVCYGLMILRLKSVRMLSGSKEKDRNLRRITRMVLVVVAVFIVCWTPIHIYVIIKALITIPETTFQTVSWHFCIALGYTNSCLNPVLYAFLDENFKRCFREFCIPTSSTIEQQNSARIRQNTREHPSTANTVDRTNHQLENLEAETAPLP

Row | SMILES | mMOR-1 Emax ([1]; mean ± SEM) | EC50 [1, 8] | Ki [2] | Ki [3] | Ki [4] | Ki [5] | EC50 [1] | functional character at MOR-1 [1] | Emax [1] | Ki [6] | Ki [7]
1 | C=CCN1CC[C@]23c4c5ccc(O)c4O[C@H]2[C@H](NC(=O)c2cccc(I)c2)CC[C@@]3(O)[C@H]1C5 [IBNalA] | 75 ± 3.5% | 1400 ± 300 pM | 220 ± 120 pM | 2550 ± 180 pM | 80 ± 60 pM | 250 ± 120 pM |  |  |  |  | 
2 | C#CCN1CC[C@]23c4c5ccc(O)c4O[C@H]2[C@H](NC(=O)c2ccc(N=[N+]=[N-])c(I)c2)CC[C@@]3(O)[C@H]1C5 [Alkynyl-IBzA 17, 4-Azido-N-((4R,4aS,7R,7aR,12bS)-4a,9-dihydroxy-3-(prop-2-yn-1-yl)-2,3,4,4a,5,6,7,7a-octahydro-1H-4,12-methanobenzofuro[3,2-e]isoquinolin-7-yl)-3-iodobenzamide] |  |  |  |  |  |  | 1100 ± 100 pM | full agonists | 103 ± 3% | 12000 ± 1630 pM | 
3 | O=C(N[C@@H]1CC[C@@]2(O)[C@H]3Cc4ccc(O)c5c4[C@@]2(CCN3CC2CC2)[C@H]1O5)c1cccc(I)c1 [IBNtxA, 3’-iodobenzoylnaltrexamide] | 101 ± 3% | 490 ± 120 pM | 110 ± 20 pM | 240 ± 100 pM | 30 ± 1 pM | 160 ± 40 pM |  |  |  |  | 120 ± 40 pM
4 | C=CCN1CC[C@]23c4c5ccc(O)c4O[C@H]2[C@H](NC(=O)c2ccc(N=[N+]=[N-])c(I)c2)CC[C@@]3(O)[C@H]1C5 [IBzA 10, N-((4R,4aS,7R,7aR,12bS)-3-Allyl-4a,9-dihydroxy-2,3,4,4a,5,6,7,7a-octahydro-1H-4,12-methanobenzofuro[3,2-e]isoquinolin-7-yl)-4-azido-3-iodobenzamide] |  |  |  |  |  |  | 860 ± 240 pM | full agonists | 122 ± 3% | 4640 ± 200 pM | 
